Experiment [1] relates to breast cancer exhibiting a positive ER status. To be noted: patients with breast cancer of positive ER status; cited from earlier work.
The test system of experiment [2] is MCF-7 breast cancer cells. The experiment is described as follows: Stable transfection of MCF-7 cells, colony formation / cell count after 2 weeks of selection. It is filed as cell-based, human. Conditions: MCF-7 cells transfected with pcDNA3.1 HA-tagged mPR plasmid, 2 weeks hygromycin B selection. The procedure:
Colonies were grown from all transfected cell lines. […] This anti-proliferative effect of both of these mutants was not observed using transiently transfected cells used for immunohistochemistry in cytospins because these were assayed shortly after transfection.
Therefore, treatments that would promote the formation of the hypophosphorylated dimeric form in tumors would be highly desirable. […] Therefore the interaction of an SH3-domain-containing protein that interacts with the SH3-domain target sequence that contains serine 56 is necessary to manifest the antiproliferative phenotype associated with non-phosphorylated serine 180. The interaction of this unknown protein is inhibited by phosphorylation of serine 56, thereby preventing the antiproliferative phenotype and enhancing proliferative ability. Conversely, when an SH2-domain-containing protein can bind to the phosphorylated tyrosine 179 adjacent to non-phosphorylated serine 180 then the antiproliferative effect is antagonized, and cells can proliferate. […]
MCF-7 cells stably transfected with mPR and mutants, respectively, were established. […] To that aim colonies were trypsinized, counted and diluted in two-fold dilutions.

Experiment [3] concerns the target T1, DCC (Homo sapiens, UniProt P43146).
T1 construct: endogenous in cells; host or cells: MCF7 human breast cancer cells, transfected only with mPR-3HA expression plasmids
Put plainly: Immune precipitation of DCC with HA-tagged mPR, Western blot with anti-DCC AF5. In kind it is binding. To be noted: MCF7 cells, 24 hours after transfection, anti-HA immunoprecipitation. The procedure:
Therefore it is most reasonable to assume that mPR will be detectable in a complex with DCC. […] Aliquots of 2×10^6 MCF7 cells were transfected as described below with each of the mPR expression vectors.
After 24 hours the mPR-3HA proteins were affinity purified with an anti-HA anti-body described above. The AF5 anti DCC human monoclonal antibody (Merck Biosciences OP45 Anti-DCC Mouse mAb AF5) was used to detect the presence of DCC by Western Blot. Normalized amounts of the precleared incubation reaction, the final supernatant after removal of the immuno-precipitate, and of the immuno-precipitated pellet were loaded to SDS-PAGE gels, blotted to membranes, and Western Blotted with the AF5 anti-DCC antibody. […] The size of the band was slightly higher than the predicted 158 kDa for DCC, possibly due to post-translational modification of the protein. An approximately 100 kDa band also reacted with the anti-DCC monoclonal antibody in Western Blot, which may represent a proteolytic fragment of DCC. […] We are not naively claiming a phosphorylated form of mPR interacts with DCC, which is not shown by our data. […]
MCF-7 breast cancer cells were transfected by Lipofection with 5 μg of pcDNA3.1 containing HA-tagged mPR-wt, tagged mutant S56A, S180A, S56A/S180A, or tagged mutant S56A/C128S/[…]. […] For IP the cells were trypsinized, counted and cell pellets were snap frozen and stored at −80° C. […]
(In general: In western blotting, separated proteins are transferred to a membrane and probed.)

T1 sequence (P43146 26-1447): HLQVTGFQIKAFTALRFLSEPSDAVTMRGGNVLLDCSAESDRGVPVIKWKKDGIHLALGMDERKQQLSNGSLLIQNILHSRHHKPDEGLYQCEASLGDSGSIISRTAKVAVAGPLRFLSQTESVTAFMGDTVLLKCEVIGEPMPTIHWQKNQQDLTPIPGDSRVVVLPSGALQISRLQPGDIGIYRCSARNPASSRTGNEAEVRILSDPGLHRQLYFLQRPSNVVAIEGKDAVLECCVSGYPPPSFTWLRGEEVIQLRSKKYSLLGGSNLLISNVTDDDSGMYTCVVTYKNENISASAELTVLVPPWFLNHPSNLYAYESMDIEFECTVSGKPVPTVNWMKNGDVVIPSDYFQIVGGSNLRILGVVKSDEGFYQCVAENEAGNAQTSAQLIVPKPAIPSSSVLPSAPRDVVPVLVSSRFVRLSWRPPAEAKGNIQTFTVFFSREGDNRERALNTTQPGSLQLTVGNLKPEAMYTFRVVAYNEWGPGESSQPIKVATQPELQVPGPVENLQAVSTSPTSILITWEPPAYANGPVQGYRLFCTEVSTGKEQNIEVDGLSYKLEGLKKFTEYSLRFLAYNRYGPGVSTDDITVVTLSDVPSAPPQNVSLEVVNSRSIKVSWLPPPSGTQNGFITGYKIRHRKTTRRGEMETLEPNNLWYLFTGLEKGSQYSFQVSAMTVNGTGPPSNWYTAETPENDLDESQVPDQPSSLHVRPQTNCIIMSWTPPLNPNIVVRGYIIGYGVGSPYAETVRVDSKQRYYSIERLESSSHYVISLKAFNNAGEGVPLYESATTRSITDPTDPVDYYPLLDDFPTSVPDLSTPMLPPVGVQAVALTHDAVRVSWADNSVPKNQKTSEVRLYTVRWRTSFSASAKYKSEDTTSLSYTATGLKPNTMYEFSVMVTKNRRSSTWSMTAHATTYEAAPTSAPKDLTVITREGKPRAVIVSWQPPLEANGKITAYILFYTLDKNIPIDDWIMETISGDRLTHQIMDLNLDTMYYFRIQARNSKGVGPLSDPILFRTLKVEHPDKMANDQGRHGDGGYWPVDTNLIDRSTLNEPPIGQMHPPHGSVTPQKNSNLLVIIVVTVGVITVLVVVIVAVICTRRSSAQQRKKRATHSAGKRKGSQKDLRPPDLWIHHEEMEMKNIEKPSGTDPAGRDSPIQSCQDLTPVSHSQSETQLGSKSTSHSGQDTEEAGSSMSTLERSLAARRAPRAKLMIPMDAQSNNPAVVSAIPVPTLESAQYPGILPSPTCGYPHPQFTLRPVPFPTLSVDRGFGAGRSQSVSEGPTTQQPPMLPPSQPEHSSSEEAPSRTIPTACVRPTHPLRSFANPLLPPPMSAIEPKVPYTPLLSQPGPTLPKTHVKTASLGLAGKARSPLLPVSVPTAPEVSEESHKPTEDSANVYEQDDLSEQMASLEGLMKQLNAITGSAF

Take `CC/C(=C(\c1ccccc1)c1ccc(OCCN(C)C)cc1)c1ccccc1` [tamoxifen]: the “fraction of cases in which effective” value in experiment [1] is reported as “approximately 50%”.

With “S56A/C128S/S180A: HA-tagged mPR triple mutant: serine 56 and 180 to alanine, cysteine 128 to serine”, the “number of colonies / ability to proliferate” value in experiment [2] was “able to proliferate”.

With “S56A/S180A: HA-tagged mPR (PGRMC1) with serine 56 and serine 180 mutated to alanine, expressed from plasmid pcDNA3.1”, in experiment [2], the “number of colonies / ability to proliferate” value is listed as “drastically reduced to effectively background levels”.

“wild-type mPR: HA-tagged wild-type membrane associated progesterone receptor component 1 expressed from pcDNA3_MPR-3HA”: the “DCC band in immune precipitation pellet” value in experiment [3] was “A high molecular weight DCC band was observed”.

These data come from US20090061461A1, “Phosphorylated or Non-Phosphorylated MPR as Diagnostic Marker or Therapeutic Target” (priority 2005, published 2009).
